What was measured:
[1] = Cytotoxicity assay (MTT), PMA-differentiated THP-1 cell line; format: cell-based; settings: human
Procedure: (§1) Adherent BALB/c mouse macrophage cell line J774A.1 (ATCC® TIB 67™) and suspension human acute monocytic leukemic cell line THP-1 (ATCC® TIB-202™) were purchased from DSMZ, Germany were cultured and maintained in DMEM medium (Gibco) and RPMI 1640 (Sigma), respectively, supplemented with 10% FBS, 1% penicillin-streptomycin (Sigma) and L-glutamine 200 mM (Sigma), at 37 °C, 5% CO2.
(§2) Cell lines J774A.1 and THP-1 were used to estimate CC50 of the peroxides. Cells were plated in 96-well flat bottom culture plates (VWR) at 5 × 10^5 cells/mL. The monocytic cell line THP-1 was differentiated in RPMI medium with phorbol myristate acetate (PMA) (25 ng/mL; Sigma) for 24 h, followed by a washing step with RPMI medium. Six serial concentrations of the compounds (Table 3) were added in four replicates and the plates were incubated at 37 °C ± 1 °C, 5% CO2 for 48 h. An untreated control (cells in DMEM or RPMI medium plus 0.5% DMSO as vehicle) and blank (medium alone) were plated out in quadruplicate. After the incubation period, 20 µL/well of MTT [3-(4,5-dimethylthiazol-2-yl)-2,5-diphenyltetrazolium bromide] was added to a final concentration of 5 µg/mL in 1× phosphate-buffered saline (PBS, Merck), with an additional 4 h incubation at 36 °C, as previously described. The formazan salts were resuspended in 2-propanol (Merck) and the cell viability was determined by measuring absorbance with a Synergy ™HTX Multi Mode Microplate Reader at 595 nm (Dynex Technologies). The CC50 values were calculated fitting the data as a non-linear regression with variable slope using a dose-response inhibitory model, in the GraphPad Prism V 8.0 program. Each compound was tested in three independent assays.

[2] = system: L. infantum IMT151 intracellular amastigotes; assay: Intracellular amastigotes assay in J774A.1 macrophages, L. infantum; format: cell-based; settings: Leishmania infantum, J774.A1; 48 h incubation, J774A.1 host cells; read-out: IC50 ± SD, L. infantum intracellular amastigotes
Procedure: The intracellular assay using the macrophage J774A.1 cell line was performed with the compounds that presented best SI on the promastigote’s susceptibility assay. J774A.1 cells were adjusted to 2.5 × 10^5 cells/mL in supplemented DMEM medium. 200 μL/well of the cell suspension was placed in 16 well Lab Tek culture glass slides (Nunc), and incubated at 37 °C ± 1 °C, 5% CO2, for 3 h, to enable the cells to adhere to the slides. After a washing step with DMEM to discard non-attached cells, the cells were infected with 2.5 × 10^6 cells/mL promastigotes in a 10:1 parasite-host cell proportion for 24 h. Compounds and control drugs were added in two replicates of six serial concentrations (Table 3). As negative control, macrophages were cultivated in medium and DMSO, as vehicle solution (0.5% v/v). Slides were incubated for 48 h at the same temperature. After a washing step with 1× PBS (Sigma), slides were fixed and stained, and the infection index was calculated according to [34] by counting the number of intracellular amastigotes per 100 macrophages, in treated and untreated cells. Two independent experiments were performed to determine the amastigotes IC50 of each compound, which was calculated by fitting the data as a non-linear regression with variable slope using a dose-response inhibitory model, in the GraphPad Prism V 8.0 program. SI was determined as described above.

[3] = Cytotoxicity assay (MTT), J774A.1 cell line; format: cell-based; settings: mouse
Procedure: as §1, §2

[4] = system: L. infantum promastigotes; assay: Flow cytometry detection of phosphatidylserine externalization (Annexin V/PI); format: cell-based, Leishmania infantum; settings: 2 × IC50, 48 h, mean ± SEM
Procedure: The L. infantum strain (MHOM/PT/1988/IMT151) was chosen for the cytometry analysis and promastigotes at a concentration of 1 × 10^7 parasites/mL were tested against the three compounds evaluated in the intracellular amastigotes assay (LC132, LC137 and LC138). Flow cytometry analysis were performed in a CytoFlex flow cytometer (Beckman Coulter), at an excitation wavelength of 488 nm (blue laser). Data acquisition were collected and registered using channels FL1 (flurescein isothiocyanate, FITC) with a BP filter (525 ± 40 nm) for Fluorescein and FL2 (IP) with a BP filter (570 ± 20 nm) for propidium iodide (PI) and 10,000 total events per sample were analysed using CytExpert v2.0.0.153 software. Samples were analysed in triplicates and two to three independent experiments were performed. Values are expressed as a percentage of cells for a given marker, relatively to the number of cells analysed ± standard error of mean (SEM).
To distinguish apoptotic cell death from necrotic cell death, cells were counterstained with PI, a non-permeable stain with affinity for nucleic acids, as it selectively enters necrotic cells. […] After adding 400 μL of 1 × Binding Buffer, samples were analysed in Cytoflex flow cytometer. Annexin V-FITC and PI were measured in FL1 and FL2 channels, respectively. […]

Row | SMILES | CC50 at 48 h [1] | IC50 [2] | CC50 at 48 h [3] | late apoptosis (Annexin+/PI+) cell population [4] | CC50 at 48 h ([1]; PMA-differentiated THP-1 cells, 48 h incubation, MTT, read-out: CC50 ± SD, THP-1 Cell Line) | CC50 at 48 h ([3]; J774A.1 macrophage cells, 48 h incubation, MTT, read-out: CC50 ± SD, J774A.1 Cell Line)
1 | C[C@@H]1[C@H](O)[C@@H](C)/C=C/C=C/C=C/C=C/C=C/C=C/C=C/[C@H](O[C@@H]2O[C@H](C)[C@@H](O)[C@H](N)[C@@H]2O)C[C@@H]2O[C@](O)(C[C@@H](O)C[C@@H](O)[C@H](O)CC[C@@H](O)C[C@@H](O)CC(=O)O[C@H]1C)C[C@H](O)[C@H]2C(=O)O [AmB, amphotericin B, reference compound] | 23.2 ± 3 µM | 0.3 ± 0.1 µM | 71.9 ± 5.4 µM | 17.5 ± 0.9% | – | –
2 | CCOC(=O)C1CCC2(CC1)OOC1(OO2)C2CC3CC(C2)CC1C3 (centres unmarked) [LC138] | – | 23.9 ± 2.7 µM | – | 20.5 ± 4.2% | 2839 ± 15 µM | 528 ± 54 µM

— publication PMC9024893, “1,2,4-Trioxolane and 1,2,4,5-Tetraoxane Endoperoxides against Old-World Leishmania Parasites: In Vitro Activity and Mode of Action” (Pharmaceuticals, 2022)
